The target of this test is Cyclin-dependent kinase 4/G1/S-specific cyclin-D1 [L188C] (Homo sapiens, UniProt P11802). The experiment in a line: CDKs Assay. The procedure:
The enzyme was assayed with substrate GST- retinoblastoma in the presence of 25 uM ATP/[gamma-32P] ATP. IC50 is the inhibitor concentration, which inhibits 50% of enzyme activity that catalyzes the transfer of the terminal phosphate from [gamma-32P] labeled ATP to GST- retinoblastoma. Use of 32P-labeled ATP allows this transfer to be monitored by scintillation counting.

The values below come from BindingDB's records for doi:10.1021/jm000271k (Parke-Davis Pharmaceutical Research, 2000).

Take `CCCn1c(=O)ccc2cnc(Nc3ccccc3)nc21` [2-(phenylamino)-8-propyl-7H,8H-pyrido[2,3-d]pyrimidin-7-one]: the half-inhibitory concentration (IC50) (usually the point on the concentration scale where inhibition reaches its midpoint) was 553 nM.

With `CCn1c(=O)ccc2cnc(NC(C)(C)C)nc21` [2-(tert-butylamino)-8-ethyl-7H,8H-pyrido[2,3-d]pyrimidin-7-one], the IC50 (pH 7.4, 25 °C) was 5250 nM. That is a single-digit micromolar value.

Take `CCN(CC)CCOc1ccc(Nc2ncc3ccc(=O)n(C(C)C)c3n2)cc1` [2-({4-[2-(diethylamino)ethoxy]phenyl}amino)-8-(propan-2-yl)-7H,8H-pyrido[2,3-d]pyrimidin-7-one]: 45 nM corresponded to half-maximal inhibition (IC50).

Molecule `CCN(CC)CCOc1ccc(Nc2ncc3ccc(=O)n(CC)c3n2)cc1` [2-({4-[2-(diethylamino)ethoxy]phenyl}amino)-8-ethyl-7H,8H-pyrido[2,3-d]pyrimidin-7-one] displayed an IC50 (pH 7.4, 25 °C) of 160 nM.

Turning to `CCn1c(=O)ccc2cnc(NC3CCCCC3)nc21` [2-Cyclohexylamino-8-ethyl-8H-pyrido[2,3-d]pyrimidin-7-one], the midpoint of inhibition (pH 7.4, 25 °C), the IC50, lay at 3300 nM.

For the setting “pH 7.4, 25 °C”, `CCn1c(=O)ccc2cnc(Nc3ccc(N(C)C)cc3)nc21` [2-{[4-(dimethylamino)phenyl]amino}-8-ethyl-7H,8H-pyrido[2,3-d]pyrimidin-7-one] showed a half-maximal inhibitory concentration (IC50) of 330 nM. This IC50 is about 10-fold lower than that of the molecule before.

Take `O=c1ccc2cnc(Nc3ccccc3)nc2n1C1CC2CCC1C2` (configuration not stated) [8-Bicyclo[2.2.1]hept-2-yl-2-phenylamino-8H-pyrido[2,3-d]pyrimidin-7-one]: the IC50 stood at 38 nM.

The molecule `CCCCn1c(=O)ccc2cnc(Nc3ccccc3)nc21` [8-Butyl-2-phenylamino-8H-pyrido[2,3-d]pyrimidin-7-one] displayed a 50% inhibitory concentration (IC50) of 1490 nM.

`O=c1ccc2cnc(Nc3ccccc3)nc2n1C1CCCCC1` [8-Cyclohexyl-2-phenylamino-8H-pyrido[2,3-d]pyrimidin-7-one] registered an IC50 of 47 nM.

Turning to `CCn1c(=O)ccc2cnc(Nc3cccc(F)c3)nc21` [8-Ethyl-2-(3-fluorophenylamino)-8H-pyrido[2,3-d]pyrimidin-7-one], the IC50 (pH 7.4, 25 °C) was 1400 nM.

In turn, `CCn1c(=O)ccc2cnc(Nc3ccc(N4CCOCC4)cc3)nc21` [8-Ethyl-2-(4-(morpholin-4-yl)phenylamino)-8H-pyrido[2,3-d]pyrimidin-7-one] displayed an IC50 of 300 nM.

On to `CCn1c(=O)ccc2cnc(Nc3cccc(OC(F)(F)C(F)F)c3)nc21` [8-Ethyl-2-[3-(1,1,2,2-tetrafluoroethoxy)phenylamino]-8H-pyrido[2,3-d]pyrimidin-7-one], for which the midpoint of inhibition (pH 7.4, 25 °C), the IC50, lay at 7830 nM. This lies in the single-digit micromolar range.

With `CCn1c(=O)ccc2cnc(Nc3ccc(N4CCN(C)CC4)cc3)nc21` [8-Ethyl-2-[4-(4-methylpiperazin-1-yl)phenylamino]-8H-pyrido[2,3-d]pyrimidin-7-one], the midpoint of inhibition, the IC50, lay at 85 nM.

Molecule `CC(C)n1c(=O)ccc2cnc(Nc3ccc(N4CCN(C)CC4)cc3)nc21` [8-Isopropyl-2-[4-(4-methylpiperazin-1-yl)phenylamino]-8H-pyrido[2,3-d]pyrimidin-7-one] registered an IC50 of 32 nM.

In turn, `Cn1c(=O)ccc2cnc(Nc3ccccc3)nc21` [8-Methyl-2-phenylamino-8H-pyrido[2,3-d]pyrimidin-7-one] yielded an IC50 of 5480 nM.

Turning to `O=c1ccc2cnc(Nc3ccccc3)nc2n1CC1CO1` (configuration not stated) [8-Oxiranylmethyl-2-phenylamino-8H-pyrido[2,3-d]pyrimidin-7-one], the IC50 was 5000 nM.

Take `O=c1ccc2cnc(Nc3ccccc3)nc2n1Cc1ccccc1` [8-benzyl-2-(phenylamino)-7H,8H-pyrido[2,3-d]pyrimidin-7-one]: it took 940 nM to reach half-maximal inhibition (IC50).

Turning to `O=c1ccc2cnc(Nc3ccccc3)nc2n1C1CCCCCC1` [8-cycloheptyl-2-(phenylamino)-7H,8H-pyrido[2,3-d]pyrimidin-7-one], the IC50 was 182 nM. This IC50 lies about 5.2-fold lower than the previous one.

In the case of `O=c1ccc2cnc(Nc3ccccc3)nc2n1C1CCCC1` [8-cyclopentyl-2-(phenylamino)-7H,8H-pyrido[2,3-d]pyrimidin-7-one], the half-maximal inhibitory concentration (IC50) turned out to be 210 nM.

In turn, `CCNc1ncc2ccc(=O)n(CC)c2n1` [8-ethyl-2-(ethylamino)-7H,8H-pyrido[2,3-d]pyrimidin-7-one] gave an IC50 (pH 7.4, 25 °C) of 12000 nM.

For `CCn1c(=O)ccc2cnc(Nc3ccc(F)cc3)nc21` [8-ethyl-2-[(4-fluorophenyl)amino]-7H,8H-pyrido[2,3-d]pyrimidin-7-one], where the note is “pH 7.4, 25 °C”, the IC50 was 1240 nM. Against the preceding molecule, the IC50 is about 9.7-fold lower.

`CCn1c(=O)ccc2cnc(Nc3ccc(OC)cc3)nc21` [8-ethyl-2-[(4-methoxyphenyl)amino]-7H,8H-pyrido[2,3-d]pyrimidin-7-one]: the IC50 (pH 7.4, 25 °C) was found to be 600 nM. Against the preceding molecule, the IC50 is about 2.1-fold lower.
